In brackets after ≈: the same amount, converted by molar mass.

Assay [1] has as its system protein RpsB in 30S ribosomal subunit. In words: Western blot analysis of RpsB content in Helicobacter pylori lysates. Conditions: H. pylori cultivated with ovatodiolide of different concentrations for 6 hours; FIG. 2. It is filed as cell-based. How it is done: In this embodiment, the process of protein translation has three steps, namely, initiation, elongation and termination of ribosomes. In order to further analyze whether ovatodiolide is effected on ribosomes causing protein synthesis unable to proceed smoothly, western blot analysis is used to determine the content of protein RpsB in 30S ribosomal subunit. Helicobacter pylori is cultivated with ovatodiolide of different concentrations for 6 hours, and extract total cell lysates. Separate total cell lysates by using 10% SDS-PAGE, transfer protein using PVDF membrane, and carry out hybridization with protein using RpsB antibody. Then, detect RpsB antibody using anti-rabbit antibody; finally, a chromogenic reagent is added, and observe results by using the apparatus Azure C400 Biosystems.
FIG. 2 is an expression of 30S ribosomal subunits RpsB analyzed by using western blot analysis. Wherein kanamycin (400 μM) and erythromycin (400 μM) are used as control groups.
(A western blot detects proteins with antibodies after separation by electrophoresis.)

Assay [2] relates to Helicobacter pylori type strain (H. pylori 26695). In words: Minimum bacteriostatic concentration by agar-well diffusion (inhibitory rings). Conditions: for Inhibitory rings: cultivated two days. Format: cell-based. How it is done: Different concentrations of ovatodiolide disks are used to cultivate with Helicobacter pylori for two days respectively. Then, the minimum concentrations for inhibiting Helicobacter pylori are determined by using agar-well diffusion. The results are used for analyzing the minimum concentration of ovatodiolide for inhibiting the growth of Helicobacter pylori type strain (H. pylori 26695). […] Based on the experimental results, 10 μM and 20 μM of ovatodiolide have inhibitory rings; the diameters of the inhibitory rings are 10±0.5 mm and 19±0 mm respectively. This proves that the minimum bacteriostatic concentration of ovatodiolide for inhibiting Helicobacter pylori is 10 μM.
(In general: A growth-free zone around the sample is the usual read-out of agar diffusion tests.)

For assay [3], the system named is extracts of Escherichia coli (E. coli S30). In words: In vitro transcription/translation system with pGL3 luciferase readout. The note with it: 10 μM; FIG. 1. Format: biochemical. How it is done: The structure of ovatodiolide is similar to that of the medicines in antibiotics for inhibiting protein generation. In order to understand whether the mechanism of ovatodiolide for inhibiting Helicobacter Pylori is related to protein synthesis, let ovatodiolide and extracts of Escherichia coli (E. coli S30) to take effect for 10 minutes by using in vitro transcription/translation systems. Then, pGL3 luciferase is added for carrying out transcription and translation reaction for 2 hours. Finally, the reacted sample is added with luciferin for it to present color by using Dual-Luciferase Reporter Assay System. Then, microplate luminometer is used to determine the […] in order to find out whether ovatodiolide can inhibit protein synthesis.
Among them, inhibition of 30S subunit using kanamycin and inhibition of […] using erythromycin are used as control groups.

The next assay relates to Hp v633. In words: Minimum bactericidal concentration, serial dilution and spread plate method. Format: cell-based, Helicobacter pylori. Conditions: cultivated six hours; multidrug-resistant strain v633. How it is done:
(§1) Different concentrations of ovatodiolide are prepared by using serial dilution method, and Helicobacter pylori type strain and multidrug-resistant gastric Helicobacter pylori (v633, v1354) separated from laboratory are cultivated for six hours respectively. Then, ovatodiolide is analyzed by using spread plate method to observe the number of colony growth, and analyze the minimum bactericidal concentrations of ovatodiolide for completely killing Helicobacter pylori type strain and multidrug-resistant strains. Based on the results on Table 2, the minimum bactericidal concentration of ovatodiolide for Helicobacter pylori type strain is 200 μM, and the minimum bactericidal concentrations for multidrug-resistant strains v633 and v1354 are 100 μM.

The test system of another assay is Hp v1354. The assay is described as above. It is filed as cell-based, Helicobacter pylori. Conditions: cultivated six hours; multidrug-resistant strain v1354. How it is done: as §1
Assay [4] relates to Hp reference strain 26695. The assay is described as above. The note with it: cultivated six hours; type strain 26695. Format: cell-based, Helicobacter pylori. How it is done:
as §1

With `C=C1C(=O)O[C@@H]2/C=C(\C)C[C@H]3C=C(CC/C=C(\C)CC[C@@H]12)C(=O)O3` [ovatodiolide], the “expression of protein RpsB” value in assay [1] was “reduces significantly”. The same compound displayed a minimum bacteriostatic concentration in assay [2] (agar-well diffusion, H. pylori 26695) of 10 µM. Also, the Inhibitory rings in assay [2] (ovatodiolide 10 μM) came to 10±0.5 mm; in assay [2] (ovatodiolide 20 μM), 19±0 mm. For the same compound, in assay [3], the “inhibition of protein synthesis” value is “more than 50%”. The Minimum bactericidal concentration stood at 100 µM (≈ 32.8 µg/mL) in the assay with Hp v633, 100 µM (≈ 32.8 µg/mL) in the assay on Hp v1354 and 200 µM (≈ 65.7 µg/mL) in assay [4].

Values taken from US20190358198A1, “USE OF OVATODIOLIDE FOR PREPARING A COMPOSITION FOR INHIBITING PROTEIN SYNTHESIS OF GASTRIC HELICOBACTER PYPORI” (Syi Biotechnology Co.,Ltd., priority 2018, published 2019).
